The subject of series [1] is mammary MATBIII tumor. The series is described as follows: Dynamic contrast enhanced (DCE) MR tumor imaging. The series is classed as in vivo, SCID mice. As to conditions: dose 0.2 mmol/kg Gd, Fe, mammary MBIII rodent tumor model. On the procedure: Cell Preparation: MATBIII breast cells (available from ATCC®) were trypsinized using 1×trypsin-EDTA. The cells were washed using 1× phosphate buffered saline (PBS) and aliquots of 2×10^6 cells were made in 1×PBS (100 uL). Prior to injection into the subject, 50 μL of basement membrane matrix (Matrigel®, BD Biosciences) was added to each aliquot.
Tumor Induction: All procedures involving animals were completed under protocols approved by the GE Global Research Institutional Animal Care and Use Committee. Female, 5-7 weeks old, SCID mice (Charles River Laboratories) were briefly anesthetized with 2% isoflurane and injected with 1×10^6 MATBIII breast cancer cells in 1×PBS (100 μL) and Matrigel SC to their left flank. The animals were monitored for 7 days post tumor cell injections at which point, precontrast agent MR images of the resulting lesions, typically 1 cm in diameter, were collected using the sequences described below.

Series [2] is described as follows: Hydrodynamic size assay (dynamic light scattering). The series is classed as physicochemical. As to conditions: size printed beside agent name in Table 8. As for the experimental part: The dilution was carried out to yield approximately 20,000 counts per second during the DLS measurement and the sample was allowed to equilibrate for 10 minutes in the instrument prior to data collection.

Regarding `CNC[C@H](O)[C@@H](O)[C@H](O)[C@H](O)CO.CNC[C@H](O)[C@@H](O)[C@H](O)[C@H](O)CO.O=C([O-])CN(CCN(CC(=O)[O-])CC(=O)O)CCN(CC(=O)[O-])CC(=O)O.[Gd+3]` [Magnevist - Gd], the “Tumor-to-muscle signal enhancement ratio, Tumor: Muscle, Average” value in series [1] is reported as 3.6. Also, the Agent size entry in series [2] is “Magnevist - Gd (1 nm)”.
